≈ marks a conversion by molar mass, not a printed value. Where two headings read alike, the source gives them in different places.
Tested on: MDRAB
Assay: MIC determination, microdilution broth method
Assay type: cell-based, Acinetobacter baumannii
Conditions: Acinetobacter baumannii, read-out: MIC
Procedure: Determination methods of a Minimal Inhibitory Concentration (MIC) and a Minimum Bactericidal Concentration (MBC) of a test product: the MIC and the MBC of the Pithecellobium clypearia Benth water or ethanol extract to the MDRAB are determined by a microdilution broth method. And it is operated by referring to the microdilution broth method recommended by National Committee for Clinical Laboratory Standards (NCCLS).

MIC (strain A1, EA=60% ethanol extract): 1 µg/mL (≈ 3.34 µM)
MIC (strain A1, EA=95% ethanol extract): 1 µg/mL (≈ 3.34 µM)
MIC (strain A1, single use, EA=10% ethanol extract): 1 µg/mL (≈ 3.34 µM)
MIC (strain A1, single use, EA=water extract): 1 µg/mL (≈ 3.34 µM)
MIC (strain A2, EA=60% ethanol extract): 32 µg/mL (≈ 107 µM)
MIC (strain A2, EA=95% ethanol extract): 32 µg/mL (≈ 107 µM)
MIC (strain A2, single use, EA=10% ethanol extract): 32 µg/mL (≈ 107 µM)
MIC (strain A2, single use, EA=water extract): 32 µg/mL (≈ 107 µM)
MIC (strain A3, EA=60% ethanol extract): 32 µg/mL (≈ 107 µM)
MIC (strain A3, EA=95% ethanol extract): 32 µg/mL (≈ 107 µM)
MIC (strain A3, single use, EA=10% ethanol extract): 32 µg/mL (≈ 107 µM)
MIC (strain A3, single use, EA=water extract): 32 µg/mL (≈ 107 µM)
MIC (strain A4, EA=60% ethanol extract): 8 µg/mL (≈ 26.7 µM)
MIC (strain A4, EA=95% ethanol extract): 8 µg/mL (≈ 26.7 µM)
MIC (strain A4, single use, EA=10% ethanol extract): 8 µg/mL (≈ 26.7 µM)
MIC (strain A4, single use, EA=water extract): 8 µg/mL (≈ 26.7 µM)
MIC (strain A5, EA=60% ethanol extract): 32 µg/mL (≈ 107 µM)
MIC (strain A5, EA=95% ethanol extract): 32 µg/mL (≈ 107 µM)
MIC (strain A5, single use, EA=10% ethanol extract): 32 µg/mL (≈ 107 µM)
MIC (strain A5, single use, EA=water extract): 32 µg/mL (≈ 107 µM)
MIC (strain A6, EA=60% ethanol extract): 32 µg/mL (≈ 107 µM)
MIC (strain A6, EA=95% ethanol extract): 32 µg/mL (≈ 107 µM)
MIC (strain A6, single use, EA=10% ethanol extract): 32 µg/mL (≈ 107 µM)
MIC (strain A6, single use, EA=water extract): 32 µg/mL (≈ 107 µM)
MIC (strain A7, EA=60% ethanol extract): 32 µg/mL (≈ 107 µM)
MIC (strain A7, EA=95% ethanol extract): 32 µg/mL (≈ 107 µM)
MIC (strain A7, single use, EA=10% ethanol extract): 32 µg/mL (≈ 107 µM)
MIC (strain A7, single use, EA=water extract): 32 µg/mL (≈ 107 µM)
MIC (strain A8, EA=60% ethanol extract): 32 µg/mL (≈ 107 µM)
MIC (strain A8, EA=95% ethanol extract): 32 µg/mL (≈ 107 µM)
MIC (strain A8, single use, EA=10% ethanol extract): 32 µg/mL (≈ 107 µM)
MIC (strain A8, single use, EA=water extract): 32 µg/mL (≈ 107 µM)
MIC (strain A9, EA=60% ethanol extract): 32 µg/mL (≈ 107 µM)
MIC (strain A9, EA=95% ethanol extract): 32 µg/mL (≈ 107 µM)
MIC (strain A9, single use, EA=10% ethanol extract): 32 µg/mL (≈ 107 µM)
MIC (strain A9, single use, EA=water extract): 32 µg/mL (≈ 107 µM)
MIC (strain A10, EA=60% ethanol extract): 16 µg/mL (≈ 53.4 µM)
MIC (strain A10, EA=95% ethanol extract): 16 µg/mL (≈ 53.4 µM)
MIC (strain A10, single use, EA=10% ethanol extract): 16 µg/mL (≈ 53.4 µM)
MIC (strain A10, single use, EA=water extract): 16 µg/mL (≈ 53.4 µM)
MIC (strain A11, EA=60% ethanol extract): 32 µg/mL (≈ 107 µM)
MIC (strain A11, EA=95% ethanol extract): 32 µg/mL (≈ 107 µM)
MIC (strain A11, single use, EA=10% ethanol extract): 32 µg/mL (≈ 107 µM)
MIC (strain A11, single use, EA=water extract): 32 µg/mL (≈ 107 µM)
MIC (strain A12, EA=60% ethanol extract): 32 µg/mL (≈ 107 µM)
MIC (strain A12, EA=95% ethanol extract): 32 µg/mL (≈ 107 µM)
MIC (strain A12, single use, EA=10% ethanol extract): 32 µg/mL (≈ 107 µM)
MIC (strain A12, single use, EA=water extract): 32 µg/mL (≈ 107 µM)
MIC (strain A13, EA=60% ethanol extract): 32 µg/mL (≈ 107 µM)
MIC (strain A13, EA=95% ethanol extract): 32 µg/mL (≈ 107 µM)
MIC (strain A13, single use, EA=10% ethanol extract): 32 µg/mL (≈ 107 µM)
MIC (strain A13, single use, EA=water extract): 32 µg/mL (≈ 107 µM)
MIC (strain A14, EA=60% ethanol extract): 32 µg/mL (≈ 107 µM)
MIC (strain A14, EA=95% ethanol extract): 32 µg/mL (≈ 107 µM)
MIC (strain A14, single use, EA=10% ethanol extract): 32 µg/mL (≈ 107 µM)
MIC (strain A14, single use, EA=water extract): 32 µg/mL (≈ 107 µM)
MIC (strain A15, EA=60% ethanol extract): 32 µg/mL (≈ 107 µM)
MIC (strain A15, EA=95% ethanol extract): 32 µg/mL (≈ 107 µM)
MIC (strain A15, single use, EA=10% ethanol extract): 32 µg/mL (≈ 107 µM)
MIC (strain A15, single use, EA=water extract): 32 µg/mL (≈ 107 µM)
MIC (strain A16, EA=60% ethanol extract): 32 µg/mL (≈ 107 µM)
MIC (strain A16, EA=95% ethanol extract): 32 µg/mL (≈ 107 µM)
MIC (strain A16, single use, EA=10% ethanol extract): 32 µg/mL (≈ 107 µM)
MIC (strain A16, single use, EA=water extract): 32 µg/mL (≈ 107 µM)
MIC (strain A17, EA=60% ethanol extract): 16 µg/mL (≈ 53.4 µM)
MIC (strain A17, EA=95% ethanol extract): 16 µg/mL (≈ 53.4 µM)
MIC (strain A17, single use, EA=10% ethanol extract): 16 µg/mL (≈ 53.4 µM)
MIC (strain A17, single use, EA=water extract): 16 µg/mL (≈ 53.4 µM)
MIC (strain A18, EA=60% ethanol extract): 32 µg/mL (≈ 107 µM)
MIC (strain A18, EA=95% ethanol extract): 32 µg/mL (≈ 107 µM)
SMILES: C[C@@H](O)[C@H]1C(=O)N2C(C(=O)O)=C(SCCN=CN)C[C@H]12 [IMP, imipenem]
